Source: the Kinase Knowledgebase extract (Sharma et al. 2016)

Molecular target: EGFR (UniProt P00533)
Sequence (P00533 whole entry, looked up): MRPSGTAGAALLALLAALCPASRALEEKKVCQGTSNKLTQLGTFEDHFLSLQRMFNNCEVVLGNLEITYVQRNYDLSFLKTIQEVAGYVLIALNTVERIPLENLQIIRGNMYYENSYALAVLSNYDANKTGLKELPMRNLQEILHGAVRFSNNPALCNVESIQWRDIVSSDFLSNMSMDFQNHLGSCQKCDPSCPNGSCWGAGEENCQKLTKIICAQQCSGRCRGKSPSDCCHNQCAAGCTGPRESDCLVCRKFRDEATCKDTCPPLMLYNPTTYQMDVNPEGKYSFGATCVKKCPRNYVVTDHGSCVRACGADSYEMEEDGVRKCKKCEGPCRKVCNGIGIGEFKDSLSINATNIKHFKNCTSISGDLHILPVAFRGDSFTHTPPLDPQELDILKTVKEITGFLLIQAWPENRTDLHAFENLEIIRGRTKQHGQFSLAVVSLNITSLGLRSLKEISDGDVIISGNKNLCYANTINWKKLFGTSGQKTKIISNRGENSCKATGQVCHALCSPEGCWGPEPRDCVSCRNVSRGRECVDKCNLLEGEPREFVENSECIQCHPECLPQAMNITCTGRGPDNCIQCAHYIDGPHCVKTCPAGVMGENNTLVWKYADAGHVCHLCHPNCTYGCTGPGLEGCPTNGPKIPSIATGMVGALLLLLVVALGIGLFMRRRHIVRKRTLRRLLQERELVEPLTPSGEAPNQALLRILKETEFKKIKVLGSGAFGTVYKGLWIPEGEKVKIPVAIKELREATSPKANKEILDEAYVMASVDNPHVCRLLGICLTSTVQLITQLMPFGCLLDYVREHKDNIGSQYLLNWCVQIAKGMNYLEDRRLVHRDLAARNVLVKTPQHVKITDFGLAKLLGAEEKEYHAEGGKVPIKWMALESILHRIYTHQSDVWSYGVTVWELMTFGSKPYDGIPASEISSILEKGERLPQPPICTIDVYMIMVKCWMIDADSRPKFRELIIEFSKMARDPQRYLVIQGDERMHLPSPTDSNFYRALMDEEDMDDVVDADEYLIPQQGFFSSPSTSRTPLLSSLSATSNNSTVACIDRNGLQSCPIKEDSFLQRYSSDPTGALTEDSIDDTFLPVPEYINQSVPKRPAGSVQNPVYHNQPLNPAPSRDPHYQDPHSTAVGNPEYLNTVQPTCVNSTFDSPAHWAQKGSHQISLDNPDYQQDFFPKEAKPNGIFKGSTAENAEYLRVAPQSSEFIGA

In the case of `COc1cc2nc(Cl)nc(Nc3ccc(C)cc3)c2cc1OC`, the IC50 is reported as 4.9 µM.

Work on `COc1cc2nc(Cl)nc(Nc3cccc(Cl)c3)c2cc1OC` yielded an IC50 of 20 µM.

`COc1cc2ncnc(Nc3cccc(I)c3)c2cc1OC` showed an IC50 of 0.0017 µM.

With `Clc1ccccc1Nc1ncnc2ccccc12` the IC50 was over 50 µM.

For `Cc1ccc2ncnc(Nc3ccc(C)c(C)c3)c2c1`, the IC50 was over 45 µM.

In the case of `Cc1ccc2ncnc(Nc3ccc(O)cc3)c2c1`, the IC50 is reported as over 50 µM.

Work on `Cc1cccc2c(Nc3cccc(Cl)c3)ncnc12` yielded an IC50 of over 50 µM.

`Cc1ccc2ncnc(Nc3ccc(C#N)cc3)c2c1` was tested, and the IC50 was over 50 µM.

In the case of `Cc1ccc2ncnc(Nc3cccc(Br)c3)c2c1`, the IC50 is reported as 0.33 µM.

For `Cc1ccc2ncnc(Nc3cccc(C(F)(F)F)c3)c2c1`, the IC50 was 0.86 µM.

`Cc1ccc2ncnc(Nc3ccccc3Cl)c2c1` showed an IC50 of over 50 µM.

In the case of `Cc1ccc(Nc2ncnc3ccc(C)cc23)cc1`, the IC50 is reported as over 50 µM.

In the case of `Cc1ccc2ncnc(Nc3ccccc3)c2c1`, the IC50 is reported as over 50 µM.

`Cc1ccc2ncnc(Nc3cccc(C(=O)O)c3)c2c1` gave an IC50 of over 50 µM.

For `Cc1ccc2ncnc(Nc3ccc4c(c3)OCO4)c2c1`, the IC50 was 21 µM.

Work on `COc1cc2ncnc(Nc3cc(Cl)cc(Cl)c3)c2cc1OC` yielded an IC50 of 0.024 µM.

In the case of `COc1cc2ncnc(Nc3ccccc3)c2cc1OC`, the IC50 is reported as over 50 µM.

Work on `Clc1cccc(Nc2ncnc3ccccc23)c1` yielded an IC50 of 0.205 µM.

`Cc1ccc2ncnc(Nc3cccc(C(N)=O)c3)c2c1` was tested, and the IC50 was over 50 µM.

In the case of `COc1cc2nc(N3CCN(C)CC3)nc(Nc3cccc(Cl)c3)c2cc1OC`, the IC50 is reported as 3.4 µM.

In the case of `Cc1ccc2ncnc(Nc3ccccc3O)c2c1`, the IC50 is reported as over 50 µM.

Work on `COc1cc2c(Nc3cccc(Cl)c3)ncnc2c(OC)c1OC` yielded an IC50 of over 50 µM.

Compound `COc1cc2nc(Nc3ccc(C)cc3)nc(Nc3ccc(C)cc3)c2cc1OC` has an IC50 of 3.4 µM.

`Cc1ccc2ncnc(Nc3ccccc3C)c2c1` gave an IC50 of over 50 µM.

`COc1ccc(Nc2ncnc3ccc(C)cc23)cc1` was tested, and the IC50 was 10 µM.

`Cc1ccc2ncnc(Nc3cccc(Cl)c3)c2c1` gave an IC50 of 0.037 µM.

Work on `COc1cccc(Nc2ncnc3cc(OC)c(OC)cc23)c1` yielded an IC50 of 1 µM.

`Cc1ccc2ncnc(Nc3ccc(Br)cc3)c2c1` was tested, and the IC50 was 14 µM.
